Source: patent US20230026696A1, “TRPV4 RECEPTOR LIGANDS” (UNIVERSITY OF UTAH RESEARCH FOUNDATION, priority 2019, published 2023)

Assays:
[1] = target: T1, TRPV3 (Homo sapiens, UniProt Q8NET8); assay: Selectivity Ca2+ flux assay, TRPV3 stably over-expressed in HEK-293 cells; assay type: cell-based; conditions: agonist carvacrol (300 μM)
T1 construct: expressed in transfected cells
T1 sequence (Q8NET8 1-790): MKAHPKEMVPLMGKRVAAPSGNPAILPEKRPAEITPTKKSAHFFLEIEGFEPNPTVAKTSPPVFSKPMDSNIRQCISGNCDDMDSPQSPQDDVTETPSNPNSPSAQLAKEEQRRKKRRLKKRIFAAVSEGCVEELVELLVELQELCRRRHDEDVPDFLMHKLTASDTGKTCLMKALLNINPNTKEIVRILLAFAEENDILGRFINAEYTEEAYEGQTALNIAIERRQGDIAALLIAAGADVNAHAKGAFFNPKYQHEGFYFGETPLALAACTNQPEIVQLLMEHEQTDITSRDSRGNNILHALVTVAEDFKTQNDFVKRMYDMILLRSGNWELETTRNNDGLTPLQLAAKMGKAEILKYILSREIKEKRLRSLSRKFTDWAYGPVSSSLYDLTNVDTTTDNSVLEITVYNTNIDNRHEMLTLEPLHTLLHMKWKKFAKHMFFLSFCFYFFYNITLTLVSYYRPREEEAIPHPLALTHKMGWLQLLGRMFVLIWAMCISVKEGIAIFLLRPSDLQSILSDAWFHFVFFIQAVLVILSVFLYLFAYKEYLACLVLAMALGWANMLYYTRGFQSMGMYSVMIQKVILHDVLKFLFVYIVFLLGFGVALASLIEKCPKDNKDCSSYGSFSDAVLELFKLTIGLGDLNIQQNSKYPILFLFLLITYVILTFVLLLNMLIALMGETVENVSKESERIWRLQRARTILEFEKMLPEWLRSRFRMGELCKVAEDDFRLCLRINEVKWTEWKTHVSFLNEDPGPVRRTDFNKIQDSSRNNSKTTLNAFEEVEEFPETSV
Method: (§1) To determine selectivity of the various test compounds for TRPV4, select compounds with activity in the TRPV4 fluorometric cell-based Ca^2+ flux assays were also tested for inhibition of human TRPA1 stably over-expressed in HEK-293 cells, TRPM8 stably over-expressed in HEK-293 cells, TRPV3 stably over-expressed in HEK-293 cells, and TRPV1 stably overexpressed in human lung epithelial (BEAS-2B) cells. The assays were conducted substantially as described above for HEK-293 cells that stably overexpress TRPV4, although for TRPV1, the BEAS-2B cells were maintained in LHC-9 media containing Geneticin (300 μg/mL) and were loaded with Fluo-4AM at room temperature. The agonist for TRPA1 was 2,4-ditert butylphenol (50 μM), for TRPM8 was icilin (50 μM), for TRPV3 was carvacrol (300 μM), and for TRPV1 was nonivamide (5 μM). All other aspects of the assay described above were the same.

[2] = target: T2, TRPM8 (Homo sapiens, UniProt Q7Z2W7); assay: Selectivity Ca2+ flux assay, TRPM8 stably over-expressed in HEK-293 cells; assay type: cell-based; conditions: agonist icilin (50 μM)
T2 construct: expressed in transfected cells
Method: as §1

[3] = system: intraocular pressure (IOP); assay: In vivo tonometric IOP assay in microbead mouse model of ocular hypertension; conditions: FIG. 2 right panel; P<0.01 / P<0.001, two-way ANOVA
Method: FIG. 1 is a graph showing the effect that two concentrations of topical compound 11 (0.01% and 0.1%), 0.5% timolol, and control PBS had on IOP in the microbead (MB) mouse model of ocular hypertension (N=3 separate experiments, with 7-10 mice per experimental cohort). Error bars=±S.E.M. Ocular hypertension in the mouse model of primary open angle glaucoma (POAG) was induced with intracameral injection of polystyrene microbeads. Antagonist stock solutions (10 mM) were prepared in DMSO, the final concentrations were made in PBS diluted to <0.0001% DMSO.
FIG. 2 is a bar chart showing the cumulative data for pre-IOP elevation cohorts of mouse eyes (N≥3 separate experiments, with 7-10 mice per experimental cohort). Left panel: the IOP data are plotted as % of the control value of the timolol-treated eye cohort. Middle panel: MB injection elevated IOP in all experimental cohorts.
A tonometric assay was used to measured IOP changes in mice models of ocular hypertension over a period of weeks following topical application of the compounds.
To prepare the mice models of ocular hypertension, mice were anesthetized with an intraperitoneal (IP) injection of ketamine/xylazine (90 mg/10 mg/kg of body weight). Eye drops of 0.5% proparacaine hydrochloride with 1% tropicamide ophthalmic solution (Bausch & Lomb) were applied to numb and dilate the eyes of the mice. IOP was elevated in the ipsilateral eye by injecting 2 μl of polystyrene microbeads (7.8 μm FluoSpheres; Bangs Laboratories) with a Hamilton syringe into the anterior chamber over 60 seconds. The contralateral eye was injected with phosphate buffered saline (PBS).
A rebound tonometer was used to measure IOP at 1, 2, 6 and 10 hours post-injection after topical administration of Compounds 11 and 52 and timolol, a known medication for treatment of IOP associated with ocular hypertension and glaucoma. The IOP was determined from the means of 10 to 20 readings, following the protocol described in Ryskamp et al., Sci Rep 6:30583, 2016. […]

[4] = target: T3, TRPV1 (Homo sapiens, UniProt Q8NER1); assay: Selectivity Ca2+ flux assay, TRPV1 stably overexpressed in human lung epithelial (BEAS-2B) cells; assay type: cell-based; conditions: agonist nonivamide (5 μM)
T3 construct: expressed in transfected cells
Method: as §1

[5] = target: T4, human TRPA1 (Homo sapiens, UniProt O75762); assay: Selectivity Ca2+ flux assay, TRPA1 stably over-expressed in HEK-293 cells; assay type: cell-based; conditions: agonist 2,4-ditert butylphenol (50 μM)
T4 construct: expressed in transfected cells
Method: as §1

T3 sequence (Q8NER1 whole entry): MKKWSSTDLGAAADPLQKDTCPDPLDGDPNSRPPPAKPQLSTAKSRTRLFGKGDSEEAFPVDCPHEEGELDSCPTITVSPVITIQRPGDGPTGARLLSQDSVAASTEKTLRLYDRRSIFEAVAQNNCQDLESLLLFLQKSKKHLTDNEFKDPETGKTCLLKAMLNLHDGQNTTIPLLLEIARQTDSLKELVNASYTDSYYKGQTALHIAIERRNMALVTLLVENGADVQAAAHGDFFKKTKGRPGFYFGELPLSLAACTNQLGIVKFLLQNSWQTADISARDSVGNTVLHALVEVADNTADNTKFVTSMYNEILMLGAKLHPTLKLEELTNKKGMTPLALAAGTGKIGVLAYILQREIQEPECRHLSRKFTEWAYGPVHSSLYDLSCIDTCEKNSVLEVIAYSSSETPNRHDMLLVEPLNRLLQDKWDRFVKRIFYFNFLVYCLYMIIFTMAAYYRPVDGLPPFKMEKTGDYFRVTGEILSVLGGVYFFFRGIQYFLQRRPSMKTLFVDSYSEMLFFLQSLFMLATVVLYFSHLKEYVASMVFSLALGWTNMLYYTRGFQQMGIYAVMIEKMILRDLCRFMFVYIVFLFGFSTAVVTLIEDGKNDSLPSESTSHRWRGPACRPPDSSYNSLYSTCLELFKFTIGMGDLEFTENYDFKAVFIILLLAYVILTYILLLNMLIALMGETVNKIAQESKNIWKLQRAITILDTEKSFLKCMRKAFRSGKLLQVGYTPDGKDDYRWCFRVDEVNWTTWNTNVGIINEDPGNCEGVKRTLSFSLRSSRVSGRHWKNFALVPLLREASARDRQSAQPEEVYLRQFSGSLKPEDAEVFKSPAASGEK
T2 sequence (Q7Z2W7 whole entry): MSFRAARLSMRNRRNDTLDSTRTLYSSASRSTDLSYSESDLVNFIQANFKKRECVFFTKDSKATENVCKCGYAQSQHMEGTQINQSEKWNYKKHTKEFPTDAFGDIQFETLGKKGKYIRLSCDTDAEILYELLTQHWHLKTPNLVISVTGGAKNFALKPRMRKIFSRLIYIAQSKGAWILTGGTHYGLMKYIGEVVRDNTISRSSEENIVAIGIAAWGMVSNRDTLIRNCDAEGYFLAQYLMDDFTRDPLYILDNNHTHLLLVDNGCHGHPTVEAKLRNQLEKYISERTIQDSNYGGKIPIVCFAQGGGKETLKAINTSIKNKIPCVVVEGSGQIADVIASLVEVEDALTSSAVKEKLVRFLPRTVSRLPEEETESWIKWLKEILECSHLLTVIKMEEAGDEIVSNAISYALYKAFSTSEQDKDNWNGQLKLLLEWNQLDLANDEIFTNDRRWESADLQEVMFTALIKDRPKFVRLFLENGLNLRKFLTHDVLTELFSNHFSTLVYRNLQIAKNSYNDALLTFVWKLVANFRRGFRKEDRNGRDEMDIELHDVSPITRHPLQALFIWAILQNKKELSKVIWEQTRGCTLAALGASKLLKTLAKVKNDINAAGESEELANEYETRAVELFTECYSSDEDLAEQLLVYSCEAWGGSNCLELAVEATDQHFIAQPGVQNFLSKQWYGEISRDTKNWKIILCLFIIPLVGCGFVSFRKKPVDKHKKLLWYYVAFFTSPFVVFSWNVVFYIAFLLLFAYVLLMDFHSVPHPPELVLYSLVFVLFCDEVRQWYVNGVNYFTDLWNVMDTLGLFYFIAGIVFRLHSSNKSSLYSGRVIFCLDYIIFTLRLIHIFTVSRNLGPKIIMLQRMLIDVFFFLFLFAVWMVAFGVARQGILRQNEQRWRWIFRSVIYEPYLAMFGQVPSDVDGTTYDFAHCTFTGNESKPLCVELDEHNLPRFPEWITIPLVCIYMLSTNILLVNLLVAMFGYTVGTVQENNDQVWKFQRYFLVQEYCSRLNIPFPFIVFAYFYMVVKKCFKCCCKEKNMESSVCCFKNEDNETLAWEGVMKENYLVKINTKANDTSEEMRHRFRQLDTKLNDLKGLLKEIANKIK
T4 sequence (O75762 whole entry): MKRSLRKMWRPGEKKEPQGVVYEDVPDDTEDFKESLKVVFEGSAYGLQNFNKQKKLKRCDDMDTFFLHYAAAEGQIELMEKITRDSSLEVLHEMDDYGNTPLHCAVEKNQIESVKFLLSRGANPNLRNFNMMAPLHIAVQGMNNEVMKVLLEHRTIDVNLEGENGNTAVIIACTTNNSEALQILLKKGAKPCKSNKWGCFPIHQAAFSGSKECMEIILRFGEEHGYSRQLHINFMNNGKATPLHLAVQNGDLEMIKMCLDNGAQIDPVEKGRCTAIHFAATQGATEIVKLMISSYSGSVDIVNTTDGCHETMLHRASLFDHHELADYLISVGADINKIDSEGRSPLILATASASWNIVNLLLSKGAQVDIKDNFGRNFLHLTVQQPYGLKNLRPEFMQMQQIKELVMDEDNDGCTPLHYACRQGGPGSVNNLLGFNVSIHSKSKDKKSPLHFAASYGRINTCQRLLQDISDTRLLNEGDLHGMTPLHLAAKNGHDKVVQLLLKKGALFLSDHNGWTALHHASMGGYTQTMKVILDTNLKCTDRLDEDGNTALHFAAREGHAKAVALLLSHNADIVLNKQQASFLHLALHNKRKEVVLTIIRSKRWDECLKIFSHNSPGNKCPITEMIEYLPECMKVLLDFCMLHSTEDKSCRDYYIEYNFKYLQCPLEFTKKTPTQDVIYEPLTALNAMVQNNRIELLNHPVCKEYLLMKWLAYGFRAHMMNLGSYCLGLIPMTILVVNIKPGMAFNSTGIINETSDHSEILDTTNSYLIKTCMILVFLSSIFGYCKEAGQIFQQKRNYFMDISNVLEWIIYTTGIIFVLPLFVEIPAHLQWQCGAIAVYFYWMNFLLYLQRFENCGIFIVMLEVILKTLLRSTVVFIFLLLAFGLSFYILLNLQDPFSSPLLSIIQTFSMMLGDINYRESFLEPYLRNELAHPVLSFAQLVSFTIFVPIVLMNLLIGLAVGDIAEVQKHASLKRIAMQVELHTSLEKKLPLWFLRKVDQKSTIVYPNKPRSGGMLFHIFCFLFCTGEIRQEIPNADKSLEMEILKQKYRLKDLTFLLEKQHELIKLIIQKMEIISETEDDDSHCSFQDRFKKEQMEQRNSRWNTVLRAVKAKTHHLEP

Row | SMILES | IC50 [1] | IC50 [2] | IOP levels in MB-treated eyes, topical application [3] | IC50 [4] | IC50 [5]
1 | N#Cc1ccc(OCC2(CO)CN(S(=O)(=O)c3ccc(Cl)cc3Cl)C2)cc1F [Compound 11, 4-((1-((2,4-Dichlorophenyl)sulfonyl)-3-(hydroxymethyl)azetidin-3-yl)methoxy)-2-fluorobenzonitrile] | > 100 µM | 14.4 µM | significantly lowered IOP levels | 24.3 µM | 52 µM
2 | Cl.N#Cc1ccc(OCC2(N)CN(S(=O)(=O)c3ccc(Cl)cc3Cl)C2)cc1F [Compound 52, 4-((3-Amino-1-((2,4-dichlorophenyl)sulfonyl)azetidin-3-yl)methoxy)-2-fluorobenzonitrile hydrochloride salt] | > 100 µM | 35.9 µM | significantly lowered IOP levels | 60 µM | 89.6 µM
